Consider six molecules from patent publication US9631225B2, “Luciferase-based assays” (Promega Corporation, priority 2002, dated 2017).

One assay addresses T1, Renilla luciferase (Renilla reniformis, UniProt P27652).
T1 construct: purchased ChemiCon Chemicals
T1 sequence (P27652 1-311): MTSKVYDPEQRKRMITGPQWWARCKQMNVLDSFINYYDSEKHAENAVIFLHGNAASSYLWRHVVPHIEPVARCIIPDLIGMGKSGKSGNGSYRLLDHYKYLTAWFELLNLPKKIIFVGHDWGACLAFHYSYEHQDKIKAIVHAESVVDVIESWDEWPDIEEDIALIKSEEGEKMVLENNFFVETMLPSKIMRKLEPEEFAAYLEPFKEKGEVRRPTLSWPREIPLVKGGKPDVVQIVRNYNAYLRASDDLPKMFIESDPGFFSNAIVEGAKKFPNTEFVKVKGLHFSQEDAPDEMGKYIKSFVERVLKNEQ
In words: Protection of Renilla luciferase reaction from inhibition by isoliquirtigenin (ILT). The assay is classed as biochemical. The settings on record: ILT 100 μM. Here is the method:
(§1) In this experiment, several tolerance enhancing agents were evaluated for their ability to protect luciferases from a known luciferase inhibitor, isoliquirtigenin (ILT) (100 μM, Sigma Chemical). ILT was added to luciferase reactions and the potential tolerance enhancing agents were evaluated for their ability to protect the luciferase from inhibition.
The basic Renilla luciferase reactions contained 100 mM Potassium Phosphate buffer (Sigma Chemical) at pH 7.4, 500 mM Sodium Chloride (Fisher Scientific), 1.0 mM EDTA (Sigma Chemical), 200 nM Coelenterazine (Promega Biosciences), 0.1% Gelatin (Sigma Chemical) and 0.12 nmol/ml Renilla luciferase (ChemiCon Chemicals).
(§2) ILT was solubilized at 100 mM in dimethyl sulfoxide (Sigma Chemical). ILT was diluted 1:1000 and the protectors were diluted into the reaction mix before the reaction was initiated by the addition of luciferase.
(§3) Reaction volume for each sample was 100 μl. Luminescence was integrated for 0.5 seconds per sample in a Turner Biosystems Veritas® luminometer immediately after luciferase was added to the reactions and the reactions were mixed. All measurements were done in triplicate.
(§4) The relative protection provided by each compound is calculated as difference between the luminescence generated in the presence and the absence of the protector divided by the total amount of inhibition as represented by the following equation: (L1−L2)/(L3−L4) wherein L1 represents luminescence with inhibitor and tolerance enhancing agent; L2 represents luminescence with inhibitor and no tolerance enhancing agent; L3 represents luminescence with no inhibitor and no tolerance enhancing agent; and L4 represents luminescence with inhibitor and no tolerance enhancing agent.
(§5) The relative protection in the presence of no tolerance enhancing agent, therefore, is 0% and in the absence of an inhibitor is 100%. The reactions used to generate luminescence in the absence of either inhibitor or tolerance enhancing agent still contained the solvent utilized to solubilize the inhibitor with which the reaction was to be compared.

Assay [1] deals with T2, firefly luciferase (QuantiLum® luciferase) (Photinus pyralis, UniProt P08659).
T2 construct: purchased Promega Corporation
T2 sequence (P08659 whole entry): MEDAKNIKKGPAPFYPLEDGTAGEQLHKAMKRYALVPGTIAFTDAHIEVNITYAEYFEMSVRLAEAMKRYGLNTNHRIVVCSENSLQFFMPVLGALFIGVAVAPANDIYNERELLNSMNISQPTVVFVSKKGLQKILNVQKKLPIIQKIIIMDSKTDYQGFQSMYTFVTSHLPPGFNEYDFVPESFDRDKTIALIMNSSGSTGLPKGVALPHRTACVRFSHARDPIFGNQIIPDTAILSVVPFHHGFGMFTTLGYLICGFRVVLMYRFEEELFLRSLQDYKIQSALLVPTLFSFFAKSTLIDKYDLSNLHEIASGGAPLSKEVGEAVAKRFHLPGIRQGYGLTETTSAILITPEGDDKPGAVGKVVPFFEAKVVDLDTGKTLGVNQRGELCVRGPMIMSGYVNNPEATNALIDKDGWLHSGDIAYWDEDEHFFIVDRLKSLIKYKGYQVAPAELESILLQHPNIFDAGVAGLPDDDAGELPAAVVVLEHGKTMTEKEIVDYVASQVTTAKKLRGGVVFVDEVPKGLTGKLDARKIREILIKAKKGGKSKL
Kind of assay: Protection of firefly luciferase reaction from inhibition by isoliquirtigenin (ILT). It counts as biochemical. Conditions: ILT 100 μM. Here is the method:
as §1
The basic firefly luciferase reactions contained 20 mM HEPES (Sigma Chemical) at pH 8.0, 6.4 mM Magnesium Sulfate (Fisher Scientific), 20 mM Dithiothreitol (City Chemical), 0.63 mM Coenzyme A (Pharmacia Biochemical), 0.4 mM EDTA (Sigma Chemical), 4.0 μM Luciferin (Promega Biosciences), 0.56 mM ATP (Pharmacia Biochemical), and 1.3×10^−6 mg/ml firefly luciferase (QuantiLum® luciferase, Promega Corporation).
as §2, §3, §4, §5

Setting [2] is: protector reaction concentration 0.10%.
Setting [3] is: protector reaction concentration 0.02%.

With `C[C@H](CCC(=O)NCCC[N+](C)(C)CCCS(=O)(=O)[O-])[C@H]1CC[C@H]2[C@@H]3[C@H](O)C[C@@H]4C[C@H](O)CC[C@]4(C)[C@H]3C[C@H](O)[C@]12C` [CHAPS® detergent, 3-([3-Cholamidopropyl]dimethylammonio)-1-propanesulfonate], the “Relative Protection Against ILT” value is given as 14% on Renilla luciferase (setting [2]), 97% at Renilla luciferase (protector reaction concentration 0.50%), 18% in assay [1] (setting [3]) and 57% in assay [1] (setting [2]).

Consider `CCCCCCCCCCCCCCCC[N+](C)(C)C.[Br-]` [CTAB, cetyltrimethylammonium], for which the “Relative Protection Against ILT” value on Renilla luciferase (setting [2]) is 95%; in assay [1] (setting [3]), 100%.

With `OC[C@H]1O[C@@](CO)(O[C@H]2O[C@H](CO)[C@@H](O)[C@H](O)[C@H]2O)[C@@H](O)[C@@H]1O` [Sucrose], the “Relative Protection Against ILT” value at Renilla luciferase (protector reaction concentration 0.10% (w:v)) is recorded as 24%; in assay [1] (protector reaction concentration 0.5% (w:v)), 32%.

In the case of `OC[C@H]1O[C@@H]2O[C@H]3[C@H](O)[C@@H](O)[C@@H](O[C@H]4[C@H](O)[C@@H](O)[C@@H](O[C@H]5[C@H](O)[C@@H](O)[C@@H](O[C@H]6[C@H](O)[C@@H](O)[C@@H](O[C@H]7[C@H](O)[C@@H](O)[C@@H](O[C@H]1[C@H](O)[C@H]2O)O[C@@H]7CO)O[C@@H]6CO)O[C@@H]5CO)O[C@@H]4CO)O[C@@H]3CO` [α-Cyclodextrin, α-Cyclodextrin (Cyclohexaamylose)], the “Relative Protection Against ILT” value at Renilla luciferase (protector reaction concentration 1.4 mM) is listed as 60%; in assay [1] (protector reaction concentration 7 mM), 61%.

Consider Deoxycholate, for which the results for the “Relative Protection Against ILT” value (on Renilla luciferase (setting [2]); in assay [1] (setting [3])) were 72% and 81%, respectively.

Turning to “nonylphenol polyethylene glycol ether (C9H19C6H—(OCH2CH2)9OH) [Tergitol NP-9® detergent]”, the “Relative Protection Against ILT” value at Renilla luciferase (setting [2]) was determined as 97%; in assay [1] (setting [3]) it was 88%.
